Test systems include HCC 2998; HL-60; OVCAR-4; Malme-3M; LOX IMVI; HT-29; SF-268; OVCAR-5; SW-620; M14; SF-539; A549; COLO 205; OVCAR-3; NCI-H23; SK-MEL-5; CCRF-CEM.
Holding throughout (assay): NCI tumour cell line growth inhibition, 48 h

Each structure is given as a SMILES string.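 Exposure lasted 48 hours, with cells grown in 96-well plates and compounds tested at five concentrations. At the GI50, growth is halved.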 Activity calls are given as the source filed them. Cut-off read from the data, not from the text of the source: active = GI50 up to about 1.1 µM and inactive = higher.

Take `CCC(=O)NCC1(c2c[nH]c3ccccc23)SCCS1`: the GI50 in the assay with HCC 2998 is > 100 µM (inactive); in the assay on HL-60 it was > 100 µM (inactive); in the assay with OVCAR-4, > 100 µM (inactive); in the assay with Malme-3M, > 100 µM (inactive); with LOX IMVI, > 100 µM (inactive); in the assay with HT-29, 53 µM (inactive). For the same compound, the GI50 in the assay with SF-268, in the assay with OVCAR-5, in the assay with SW-620, in the assay on M14, with SF-539 and in the assay with A549 was > 100 µM (inactive) in each case. The GI50 with COLO 205, with OVCAR-3, in the assay with NCI-H23, in the assay on SK-MEL-5 and with CCRF-CEM was > 100 µM (inactive) each time.
Consider `N/N=c1/nc2n(c3ncccc13)C=CNN2`, for which the GI50 in the assay with HCC 2998, in the assay on HL-60, with Malme-3M, in the assay on LOX IMVI, in the assay on HT-29 and in the assay on SF-268 was > 100 µM (inactive) throughout. For the same compound, the GI50 in the assay on OVCAR-5, in the assay on SW-620, in the assay with SF-539, in the assay on A549, with COLO 205 and with OVCAR-3 was > 100 µM (inactive) throughout. In addition, the GI50 in the assay on NCI-H23, in the assay with SK-MEL-5 and in the assay with CCRF-CEM was > 100 µM (inactive) each time.
As to `CC(=O)Oc1ccc(O)c(O)c1C/C=C(\C)CC/C=C(\C)CC/C=C(\C)CCC=C(C)C` [TETRAPRENYLPHENOLSUILLIN], the GI50 in the assay with HCC 2998 was 0.871 µM (active); in the assay on HL-60, 1.39 µM (inactive); in the assay on OVCAR-4, 0.426 µM (active); in the assay on Malme-3M, 0.274 µM (active); in the assay with LOX IMVI, 0.247 µM (active); with HT-29, 0.338 µM (active). Moreover, the GI50 with SF-268 was 0.446 µM (active); in the assay on OVCAR-5, 0.596 µM (active); in the assay on SW-620 it was 0.3 µM (active); in the assay with M14, 1.51 µM (inactive); with SF-539 it was 0.407 µM (active); in the assay on A549, 0.34 µM (active). For the same compound, the GI50 in the assay with COLO 205 was 0.157 µM (active); with NCI-H23 it was 0.429 µM (active).
As for `O=C(Cc1csc(-c2nc(CC(=O)NNc3ccccc3)cs2)n1)NNc1ccccc1`, the GI50 in the assay with HCC 2998 was 43 µM (inactive); in the assay on HL-60, 32 µM (inactive); in the assay with OVCAR-4, > 100 µM (inactive); with Malme-3M, > 100 µM (inactive); with LOX IMVI it was 19.6 µM (inactive); in the assay with HT-29, 71.1 µM (inactive). The GI50 in the assay with SF-268 was > 100 µM (inactive); in the assay on OVCAR-5 it was > 100 µM (inactive); with M14, > 100 µM (inactive); with SF-539 it was > 100 µM (inactive); with A549, > 100 µM (inactive); in the assay with COLO 205, 25.9 µM (inactive). In addition, the GI50 with OVCAR-3 was > 100 µM (inactive); in the assay with NCI-H23, > 100 µM (inactive); in the assay with SK-MEL-5 it was > 100 µM (inactive); in the assay on CCRF-CEM, 34.9 µM (inactive).
Regarding `CCOC1=NC(=O)CC(c2ccccc2)S1` (stereo not given), the GI50 in the assay on HCC 2998, in the assay with HL-60, in the assay with OVCAR-4, with Malme-3M, with LOX IMVI and in the assay on HT-29 was > 100 µM (inactive) throughout. Also, the GI50 is > 100 µM (inactive) in the assay with SF-268; > 100 µM (inactive) in the assay on OVCAR-5; > 100 µM (inactive) in the assay with SW-620; 68.1 µM (inactive) in the assay on M14; > 100 µM (inactive) in the assay with SF-539; > 100 µM (inactive) in the assay with A549. Besides, the GI50 was > 100 µM (inactive) in the assay with COLO 205, > 100 µM (inactive) in the assay on OVCAR-3, > 100 µM (inactive) with SK-MEL-5 and 69.3 µM (inactive) in the assay on CCRF-CEM.
Turning to `COC(=O)C1C2C=CC(C2)C1(C(=O)OC)[S+]([O-])CC12CCC(CC1O)C2(C)C` (stereo not given), the GI50 with HCC 2998 is > 100 µM (inactive); with HL-60, > 100 µM (inactive); in the assay on OVCAR-4 it was > 100 µM (inactive); in the assay on Malme-3M, > 100 µM (inactive); in the assay with LOX IMVI, 21.1 µM (inactive); in the assay with HT-29, > 100 µM (inactive). For the same compound, the GI50 in the assay with SF-268 is > 100 µM (inactive); in the assay with OVCAR-5, > 100 µM (inactive); in the assay with SW-620, 16 µM (inactive); in the assay with M14 it was > 100 µM (inactive); with SF-539 it was > 100 µM (inactive); in the assay on A549 it was > 100 µM (inactive). Moreover, the GI50 in the assay on COLO 205, in the assay on OVCAR-3, with NCI-H23, with SK-MEL-5 and with CCRF-CEM was > 100 µM (inactive) throughout.
Take `CCCCCCC(=O)OC[n+]1ccc2c(C)c3[nH]c4ccccc4c3c(C)c2c1`: the GI50 was 0.826 µM (active) in the assay with HCC 2998; 2.23 µM (inactive) in the assay with HL-60; 1.06 µM (active) in the assay with OVCAR-4; 1.61 µM (inactive) in the assay on Malme-3M; 0.537 µM (active) in the assay with LOX IMVI; 0.347 µM (active) with HT-29. Further, the GI50 is 0.61 µM (active) with SF-268; 1.71 µM (inactive) in the assay with OVCAR-5; 0.31 µM (active) with SW-620; 1.29 µM (inactive) with M14; 0.646 µM (active) with SF-539; 0.474 µM (active) in the assay on A549. Also, the GI50 in the assay on OVCAR-3 is 1.21 µM (inactive); in the assay on NCI-H23, 0.455 µM (active); with SK-MEL-5, 1.56 µM (inactive).
`COc1cc2c(cc1OC)-c1cc(OC)c(OC)cc1[C@H]1CN3CCC[C@@]3(O)C=C21`: the GI50 is 0.01 µM (active) in the assay with HCC 2998; < 0.0001 µM (active) in the assay on HL-60; < 0.0001 µM (active) in the assay on OVCAR-4; < 0.0001 µM (active) with Malme-3M; < 0.0001 µM (active) in the assay with LOX IMVI; < 0.0001 µM (active) in the assay on HT-29. Moreover, the GI50 with SF-268, in the assay on OVCAR-5, with SW-620, with M14, in the assay with SF-539 and with A549 was < 0.0001 µM (active) throughout. Besides, the GI50 in the assay on COLO 205, in the assay with OVCAR-3, in the assay with NCI-H23, with SK-MEL-5 and in the assay with CCRF-CEM was < 0.0001 µM (active) each time.
Regarding `O=C1/C(=N\O)c2ccccc2S1(=O)=O`, the GI50 with HCC 2998 is 18.4 µM (inactive); in the assay on HL-60 it was 25.2 µM (inactive); in the assay on OVCAR-4, > 100 µM (inactive); with Malme-3M, 55.3 µM (inactive); in the assay with LOX IMVI, > 100 µM (inactive); in the assay with HT-29, > 100 µM (inactive). Further, the GI50 is 80.9 µM (inactive) in the assay with SF-268; > 100 µM (inactive) in the assay on OVCAR-5; > 100 µM (inactive) in the assay with SW-620; > 100 µM (inactive) with M14; > 100 µM (inactive) in the assay with SF-539; > 100 µM (inactive) in the assay on A549. For the same compound, the GI50 was 13.6 µM (inactive) with COLO 205, > 100 µM (inactive) in the assay with SK-MEL-5 and 60 µM (inactive) in the assay with CCRF-CEM.
On to `CN1CN(C2OC(CO)C(O)C2O)c2nc(N)[nH]c(=O)c21` (stereo not given), for which the GI50 in the assay on HCC 2998, in the assay with HL-60, in the assay on OVCAR-4, in the assay with Malme-3M, with HT-29 and in the assay on SF-268 was > 100 µM (inactive) in each case. The GI50 with OVCAR-5, in the assay on SW-620, with M14, in the assay with SF-539, in the assay on A549 and in the assay with COLO 205 was > 100 µM (inactive) each time. In addition, the GI50 with OVCAR-3, in the assay on NCI-H23 and with SK-MEL-5 was > 100 µM (inactive) in each case.
In the case of `O=C(/C(=C\c1ccc(Cl)cc1)c1ccccc1)c1ccccc1`, the GI50 in the assay on HCC 2998 is 40.5 µM (inactive); in the assay on HL-60 it was 15 µM (inactive); with OVCAR-4, 26.3 µM (inactive); in the assay with Malme-3M, 57 µM (inactive); with LOX IMVI it was 29.9 µM (inactive); with HT-29, 43.8 µM (inactive). The GI50 in the assay on SF-268 is > 100 µM (inactive); in the assay with OVCAR-5 it was 22.7 µM (inactive); in the assay with SW-620 it was 57.8 µM (inactive); in the assay with M14 it was 73.5 µM (inactive); with SF-539, > 100 µM (inactive); in the assay with COLO 205, > 100 µM (inactive). Besides, the values for the GI50 in the assay with NCI-H23 and with CCRF-CEM were 72.6 µM (inactive) and > 100 µM (inactive), respectively.
For `O=C1CC(c2c[nH]c3ccccc23)C(=O)N1` (stereo not given), the GI50 in the assay on HCC 2998, with HL-60, with OVCAR-4, in the assay on Malme-3M, with HT-29 and with OVCAR-5 was > 100 µM (inactive) in each case. Also, the GI50 in the assay with SW-620, with M14, in the assay with SF-539, with A549, with OVCAR-3 and in the assay with NCI-H23 was > 100 µM (inactive) each time. Besides, the GI50 in the assay with SK-MEL-5 and with CCRF-CEM was > 100 µM (inactive) throughout.
Regarding `COC(=O)/C(C#N)=C1\CCC(Nc2cccc(C(F)(F)F)c2)N1C` (stereo not given), the GI50 with HCC 2998 was > 100 µM (inactive); in the assay with HL-60, 61.7 µM (inactive); with OVCAR-4 it was > 100 µM (inactive); in the assay on Malme-3M, > 100 µM (inactive); with LOX IMVI it was > 100 µM (inactive); in the assay on HT-29, > 100 µM (inactive). For the same compound, the GI50 with SF-268, in the assay on OVCAR-5, with SW-620, in the assay with M14, in the assay with SF-539 and in the assay with A549 was > 100 µM (inactive) throughout. Further, the GI50 was > 100 µM (inactive) in the assay on OVCAR-3, 72.1 µM (inactive) with NCI-H23 and > 100 µM (inactive) with CCRF-CEM.
